# Laboratory results from patent US8901276B2, “Peptide reagents and methods for detection of colon dysplasia” (The Regents of the University of Michigan, priority 2010, dated 2014).
# Entries after “also recorded” stand apart in the source; their conditions may differ.
# Legend:
# HT29 cells = test: Fluorescence microscopy of FITC-labeled peptides; assay type: cell-based, human; conditions: 10 μM; for internalization within HT29 cells: 37° C.; for binding to the surface of HT29 cells: 15 min, 4° C.
# Description: Preferential binding of the FITC-Peptide 2 and FITC-Control peptide 2 to target and non-target cells was also validated via fluorescence microscopy. HT29 and Hs738.St/Int. cells were grown in 22 mm2 cover slips with ˜80% confluence. Blocking of non-specific binding was performed by adding PBS/0.5% BSA for 30 min. The cells were then incubated with 10 μM of FITC-Peptide 2 or FITC-Control peptide 2 either at 4 or 37° C. for 15 min followed by 1 μg/mL Hoechst dye (Sigma Aldrich, St. Louis, Mo.) along with the peptide. The cells were washed with PBS for 3 times and fixed with 4% paraformaldehyde at room temperature for 10 min. After fixation, the cells were washed again with PBS (1×) and mounted with ProLong® Gold reagent (Invitrogen, Carlsbad, Calif.) and the fluorescence images were acquired with Leica Confocal system. (Leica Microsystems GMBH, Wetzlar, 35578 Germany)
# In addition, the ability of the FITC-Peptide 2 peptide to internalize within the HT29 cells was tested. HT29 cells were incubated for 15 min. at either 4° C. or 37° C. in the presence of 10 μM FITC-Peptide 2.
# Preferential binding of the FITC-labeled candidate and control peptides to the target and non-target cells was further validated via fluorescence microscopy. HT29 and Hs738.St/Int. cells were grown on cover slips to ˜80% confluence. Blocking of non-specific binding was performed by adding PBS/0.5% BSA for 30 min. The cells were then incubated with 10 μM of 5-FITC-labeled candidate or control peptide at either 4 or 37° C. for 15 min followed by staining with 1 μg/mL Hoechst dye (Sigma Aldrich, St. Louis, Mo.) along with the peptide. The cells were washed 3× with PBS and fixed with 4% paraformaldehyde at RT for 10 min. After fixation, the cells were washed again with PBS and mounted with ProLong Gold reagent (Invitrogen, Carlsbad, Calif.) and fluorescence images were collected with confocal microscopy (Leica TCS SP5 Microsystems, Bannockburn, Ill.).
# [1] = test system: human colon surgical specimens (normal mucosa, dysplastic adenomas, carcinoma); test: Binding of synthetic peptides to human surgical specimens of colon cancer (Example 9)
# Description: Fresh frozen sections from human surgical specimens were cryosectioned with […] and used to localize peptide binding. The sectioned tissues were air dried and washed with PBS 1×. Sections were incubated with FITC labeled peptides (10 μM) for 15 min at RT. The sections were washed three times each for 1 min in PBS and fixed with 4% paraformaldehyde for 10 min. After fixing, the sections were washed again (1×) and mounted with ProLong® Gold reagent with DAPI (Invitrogen, Carlsbad, Calif.). The sections were imaged under a confocal microscope ([…]). All surgical specimens were obtained from the tissue procurement core of University of Michigan with approval from the Institutional Review Board (IRB).
# Hs738.St/Int. cells = test: Flow cytometry of FITC-labeled peptides; assay type: cell-based, human; conditions: 10 μM, 60 min, 4° C.
# Description: Preferential binding of FITC-Peptide 2 to target cells was validated using flow cytometry. HT29 and Hs738.St/Int. (˜2×10^5) cells were grown, detached, and blocked as described above. These cells were incubated with the FITC-Peptide 2 or -Control peptide 2 (10 μM) for 60 min at 4° C. with continuous agitation. The cells were then washed (3×) with cold PBST followed by immediate fixing for 10 min. with 4% paraformaldehyde. The cells were washed again (1×) with PBS and resuspended in 1 mL of PBS. Flow cytometry was performed using FACSDiVa (BD® LSRII, BD Biosciences, San Jose, Calif.) and analyzed using Flowjo analysis program (Tree Star Inc., Ashland, Oreg.).
# Preferential binding of the candidate peptide labeled with 5-FITC to the target and control cells was also validated using flow cytometry. HT29 and Hs738.St/Int. (˜2×10^5) cells were grown, detached, and blocked, as described above. These cells were incubated with the 5-FITC labeled candidate or control peptide (10 μM) for 60 min at 4° C. with continuous agitation. The cells were then washed 3× with cold PBST followed by immediate fixation for 10 min with 4% paraformaldehyde. The cells were washed again with PBS and resuspended in 1 mL of PBS. Flow cytometry was performed using FACSDiVa (BD® LSRII, BD Biosciences, San Jose, Calif.) and analyzed using Flowjo analysis program (Tree Star Inc. Ashland, Oreg.).
substance,measurement,setting,value
"KCCFPAQ-FITC [FITC-Peptide 2, KCCFPAQ with FITC at the C-terminus on the side chain of lysine residue via GGGSK linker]",internalization within HT29 cells,HT29 cells,diffuse staining throughout the cells
same,internalization within HT29 cells,HT29 cells; listed as KCCFPAQ peptide,diffuse peptide staining throughout the cells
same,binding to the surface of HT29 cells,HT29 cells,binds to the surface of the HT29; also recorded: confined to the cell surface
same,binding to the surface of HT29 cells,HT29 cells; listed as KCCFPAQ peptide,binds to the surface of the HT29 cells
same,T/B carcinoma compared to normal mucosa,[1],7
same,binding to carcinoma relative to dysplastic adenomas,[1],1.5 fold
same,binding to normal mucosa,"[1]; 10 μM, 15 min, RT",no binding was observed
same,staining of pre-malignant lesions (dysplastic adenomas) and malignant lesions (carcinoma),"[1]; 10 μM, 15 min, RT",stained consistently
same,T/B ratio FITC-Peptide 2 vs. FITC-Control peptide 2,[1]; adenoma,3
same,T/B ratio FITC-Peptide 2 vs. FITC-Control peptide 2,[1]; carcinoma,6
same,T/B ratio FITC-Peptide 2 vs. FITC-Control peptide 2,[1]; normal mucosa,1
same,binding to Hs738.St/Int. cells on flow cytometry,Hs738.St/Int. cells,bound minimally
